Data on 30 molecules can be found in patent US11535607B2, “Isoindolines as HDAC inhibitors” (Valo Health, Inc., priority 2018, dated 2022).

Where a name gives a salt, the structure may show the parent alone. Where only a bound is given, the exact number is not on record here.

For the test, the target named is full-length human HDAC11 (Homo sapiens (Human), UniProt Q96DB2). In words: Probe binding HDAC11 time resolved fluorescence (TRF) assay. Conditions: Table 2, read-out: HDAC11 IC50 Range. Here is the method:
The probe binding HDAC11 assay was performed using a time resolved fluorescence (TRF) assay format. Recombinant N-terminal GST tag full-length human HD AC 11 was expressed and purified from baculovirus in Sf9 insect cells (SignalChem, #H93-30G-1000). […] 4 μL of 2× probe and 2× anti-GST Terbium (Cisbio, #61GSTXLB) was added to assay plates followed by 4 μL of 2×HDAC11.
Data from HD AC 11 Assays were reported as percent inhibition (inh) compared with control wells based on the following equation: % inh=1−((FLU−AveLow)/(AveHigh−AveLow)) where FLU=measured time resolved fluorescence. AveLow=average time resolved fluorescence of no enzyme control (n=32). AveHigh=average time resolved fluorescence of DMSO control (n=32). IC50 values were determined by curve fitting of the standard 4 parameter logistic fitting algorithm included in the Activity Base software package: IDBS XE Designer Model205. Data is fitted using the Levenburg Marquardt algorithm.

full-length human HDAC11, sequence (Q96DB2 whole entry): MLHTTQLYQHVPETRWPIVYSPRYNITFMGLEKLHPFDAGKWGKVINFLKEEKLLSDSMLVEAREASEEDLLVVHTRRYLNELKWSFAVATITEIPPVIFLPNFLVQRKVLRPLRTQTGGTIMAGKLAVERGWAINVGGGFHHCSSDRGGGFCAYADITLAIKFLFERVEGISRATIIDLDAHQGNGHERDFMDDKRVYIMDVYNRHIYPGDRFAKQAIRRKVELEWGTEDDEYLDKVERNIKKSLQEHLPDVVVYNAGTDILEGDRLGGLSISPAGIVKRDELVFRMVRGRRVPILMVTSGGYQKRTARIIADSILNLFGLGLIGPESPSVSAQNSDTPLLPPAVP

The IC50 is the concentration that gives 50% inhibition. As for `O=C(NO)c1cccc2c1CN(c1ccc3c(c1)OCCN3)C2` [Compound 9-1, 2-(3,4-dihydro-2H-benzo[b][1,4]oxazin-7-yl)-N-hydroxyisoindoline-4-carboxamide hydrochloride], the IC50 is 500 to 1000 nM. Under `O=C(NO)c1cccc2c1CN(c1nc3c([nH]1)CNCC3)C2` [Compound 13-1, N-hydroxy-2-(4,5,6,7-tetrahydro-3H-imidazo[4,5-c]pyridin-2-yl)isoindoline-4-carboxamide] stands over 1000 nM. With `O=C(NO)c1cccc2c1CN(C1=NC(O)(C(F)(F)F)C(c3ccccc3)=N1)C2` (stereo not drawn) [Compound 44-1, N-hydroxy-2-(4-hydroxy-5-phenyl-4-(trifluoromethyl)-4H-imidazol-2-yl)isoindoline-4-carboxamide], the IC50 is over 1000 nM. Under `O=C(NO)c1cccc2c1CN(c1nc3ncccc3s1)C2` [Compound 10-1, N-hydroxy-2-(thiazolo[4,5-b]pyridin-2-yl)isoindoline-4-carboxamide] stands over 1000 nM. Under `O=C(NO)c1cccc2[nH]c(-c3ccc(C(F)(F)F)cc3)cc12` [Compound 37-2, N-hydroxy-2-(4-(trifluoromethyl)phenyl)-1H-indole-4-carboxamide] stands 500 to 1000 nM; under `O=C(NO)c1cccc2cc(-c3cnc(C(F)(F)F)cn3)[nH]c12` [Compound 37-3, N-hydroxy-2-(5-(trifluoromethyl)pyrazin-2-yl)-1H-indole-7-carboxamide], under 500 nM.

Consider `CC1(C)c2cccc(C(=O)NO)c2CN1c1nc2c(o1)CC(C(F)(F)F)CC2` (stereo not drawn) [Compound 19-2, N-hydroxy-1,1-dimethyl-2-(6-(trifluoromethyl)-4,5,6,7-tetrahydrobenzo[d]oxazol-2-yl)isoindoline-4-carboxamide], for which the IC50 was under 500 nM. Under `Cc1cnc(N2Cc3cccc(C(=O)NO)c3C2)[nH]1` [Compound 7-5, N-hydroxy-2-(5-methyl-1H-imidazol-2-yl)isoindoline-4-carboxamide] stands over 1000 nM; under `CC1(C)c2cccc(C(=O)NO)c2CN1C(=O)Nc1ccnc(C(F)(F)F)c1` [Compound 30-3, N4-hydroxy-1,1-dimethyl-N2-(2-(trifluoromethyl)pyridin-4-yl)isoindoline-2,4-dicarboxamide], under 500 nM. Under `CC1(C)c2cccc(C(=O)NO)c2CN1c1nc2ccccc2s1` [Compound 22-1, 2-(benzo[d]thiazol-2-yl)-N-hydroxy-1,1-dimethylisoindoline-4-carboxamide] stands under 500 nM; under `O=C(NO)c1cccc2c1N[C@H](c1ccc(C(F)(F)F)cc1)C2` [Compound 39-2, (S)—N-hydroxy-2-(4-(trifluoromethyl)phenyl)indoline-7-carboxamide], over 1000 nM. With `CC1(C)c2cccc(C(=O)NO)c2N[C@@H]1c1cnc(C(F)(F)F)cn1` [Compound 40-4, (S)-N-hydroxy-3,3-dimethyl-2-(5-(trifluoromethyl)pyrazin-2-yl)indoline-7-carboxamide] the figure was over 1000 nM. As to `O=C(NO)c1cccc2c1CN(c1nc3cccc(-c4ccccc4)c3[nH]1)C2` [Compound 35-2, N-hydroxy-2-(7-phenyl-1H-benzo[d]imidazol-2-yl)isoindoline-4-carboxamide], the IC50 is over 1000 nM. With `O=C(NO)c1cccc2c1CN(c1ncc3ccccc3n1)C2` [Compound 7-1, N-hydroxy-2-(quinazolin-2-yl)isoindoline-4-carboxamide] the figure was over 1000 nM. Under `CC1(C)c2cccc(C(=O)NO)c2CN1C(=O)Nc1ccc(C(F)(F)F)cn1` [Compound 30-2, N4-hydroxy-1,1-dimethyl-N2-(5-(trifluoromethyl)pyridin-2-yl)isoindoline-2,4-dicarboxamide] stands over 1000 nM; under `CC1(C)c2cccc(C(=O)NO)c2CN1c1nc2nc(C(F)(F)F)ccc2o1` [Compound 26-1, N-hydroxy-1,1-dimethyl-2-(5-(trifluoromethyl)oxazolo[4,5-b]pyridin-2-yl)isoindoline-4-carboxamide], under 500 nM. In the case of `CC1(C)c2cccc(C(=O)NO)c2N[C@@H]1c1ccc(C(F)(F)F)cc1` [Compound 40-6, (R)-N-hydroxy-3,3-dimethyl-2-(4-(trifluoromethyl)phenyl)indoline-7-carboxamide], the IC50 was over 1000 nM.

Turning to `O=C(NO)c1cccc2c1CN(c1cnc3cccnc3c1)C2` [Compound 8-1, N-hydroxy-2-(1,5-naphthyridin-3-yl)isoindoline-4-carboxamide], the IC50 is over 1000 nM.

With `CC1(C)c2cccc(C(=O)NO)c2CN1C(=O)Nc1cccc(C(F)(F)F)n1` [Compound 30-6, N4-hydroxy-1,1-dimethyl-N2-(6-(trifluoromethyl)pyridin-2-yl)isoindoline-2,4-dicarboxamide], the IC50 was over 1000 nM. Under `O=C(NO)c1cccc2c1NC(c1ccc(C(F)(F)F)cc1)C2` (stereo not drawn) [Compound 38-1, N-hydroxy-2-(4-(trifluoromethyl)phenyl)indoline-7-carboxamide] stands 500 to 1000 nM. As for `CC1(C)c2cccc(C(=O)NO)c2CN1C(=O)Nc1cc2c(cn1)CCCC2` [Compound 31-1, N4-hydroxy-1,1-dimethyl-N2-(5,6,7,8-tetrahydroisoquinolin-3-yl)isoindoline-2,4-dicarboxamide], the IC50 is 500 to 1000 nM. Under `CC1(C)c2cccc(C(=O)NO)c2N[C@H]1c1ccc(C(F)(F)F)cn1` [Compound 40-1, (R)—N-hydroxy-3,3-dimethyl-2-(5-(trifluoromethyl)pyridin-2-yl)indoline-7-carboxamide] stands over 1000 nM. Under `CC1(C)c2cccc(C(=O)NO)c2CN1c1ccc2cc(C(F)(F)F)ccc2n1` [Compound 23-1, N-hydroxy-1,1-dimethyl-2-(6-(trifluoromethyl)quinolin-2-yl)isoindoline-4-carboxamide] stands under 500 nM. As for `O=C(NO)c1cccc2c1CN(c1cccc(C(F)(F)F)n1)C2` [Compound 45-2, N-hydroxy-2-(6-(trifluoromethyl)pyridin-2-yl)isoindoline-4-carboxamide], the IC50 was over 1000 nM. Under `CC1(C)c2ccnc(C(=O)NO)c2CN1c1ccc(C(F)(F)F)cn1` [Compound 33-1, N-hydroxy-1,1-dimethyl-2-(5-(trifluoromethyl)pyridin-2-yl)-2,3-dihydro-1H-pyrrolo [3,4-c]pyridine-4-carboxamide] stands 500 to 1000 nM. Under `O=C(NO)c1cccc2c1CC(c1ccc(C(F)(F)F)cc1)N2` (stereo not drawn) [Compound 38-2, N-hydroxy-2-(4-(trifluoromethyl)phenyl)indoline-4-carboxamide] stands over 1000 nM. Regarding `CC1(C)c2cccc(C(=O)NO)c2N[C@H]1c1cnc(C(F)(F)F)cn1` [Compound 40-3, (R)-N-hydroxy-3,3-dimethyl-2-(5-(trifluoromethyl)pyrazin-2-yl)indoline-7-carboxamide], the IC50 is under 500 nM. Under `COc1ccc(CN2Cc3cccc(C(=O)NO)c3C2)cc1` [Compound 41-2, N-hydroxy-2-(4-methoxybenzyl)isoindoline-4-carboxamide] stands over 1000 nM; under `CC1(C)c2cccc(C(=O)NO)c2N[C@H]1c1ccc(C(F)(F)F)cc1` [Compound 40-5, (S)-N-hydroxy-3,3-dimethyl-2-(4-(trifluoromethyl)phenyl)indoline-7-carboxamide], 500 to 1000 nM; under `O=C(NO)c1cccc2c1CN(c1ccccc1)C2` [Compound 42-1, N-hydroxy-2-phenylisoindoline-4-carboxamide], over 1000 nM.
